Assay results: the supplement of paper PMC11451515

System: P12-Ichikawa
Test: cell viability relative to DMSO control; higher = less cytotoxic
Details: 48 h
Procedure, shortened: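 NOMO1 or SEM cells were plated at 500 cells/well and P12-Ichikawa cells at 1000 cells/well in 1536-well plates (5 μl), after each leukemia line had been adapted for at least four passages in each medium. Pin dosing delivered library compounds in DMSO at 11 threefold concentrations, 47 μM to 0.79 nM. CellTiter-Glo One luminescence was read after 48 h at 37°C. Viability is reported as a per-plate percentage of DMSO wells, with cell-free wells as background.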

[1] = HPLM + 10% dialyzed FBS, 0.000781 µM
[2] = HPLM + 10% dialyzed FBS, 0.00234 µM
[3] = HPLM + 10% dialyzed FBS, 0.00702 µM
[4] = HPLM + 10% dialyzed FBS, 0.0211 µM
[5] = HPLM + 10% dialyzed FBS, 0.0632 µM
[6] = HPLM + 10% dialyzed FBS, 0.19 µM
[7] = HPLM + 10% dialyzed FBS, 0.569 µM
[8] = HPLM + 10% dialyzed FBS, 1.71 µM
[9] = HPLM + 10% dialyzed FBS, 5.12 µM
[10] = HPLM + 10% dialyzed FBS, 15.4 µM
[11] = HPLM + 10% dialyzed FBS, 46.1 µM
[12] = RPMI 5 mM glucose + 10% FBS, 0.000781 µM
[13] = RPMI 5 mM glucose + 10% FBS, 0.00234 µM
[14] = RPMI 5 mM glucose + 10% FBS, 0.00702 µM
[15] = RPMI 5 mM glucose + 10% FBS, 0.0211 µM
[16] = RPMI 5 mM glucose + 10% FBS, 0.0632 µM
[17] = RPMI 5 mM glucose + 10% FBS, 0.19 µM
[18] = RPMI 5 mM glucose + 10% FBS, 0.569 µM
[19] = RPMI 5 mM glucose + 10% FBS, 1.71 µM
[20] = RPMI 5 mM glucose + 10% FBS, 5.12 µM
[21] = RPMI 5 mM glucose + 10% FBS, 15.4 µM
[22] = RPMI 5 mM glucose + 10% FBS, 46.1 µM
[23] = RPMI 5 mM glucose + 10% dialyzed FBS, 0.000781 µM
[24] = RPMI 5 mM glucose + 10% dialyzed FBS, 0.00234 µM
[25] = RPMI 5 mM glucose + 10% dialyzed FBS, 0.00702 µM
[26] = RPMI 5 mM glucose + 10% dialyzed FBS, 0.0211 µM
[27] = RPMI 5 mM glucose + 10% dialyzed FBS, 0.0632 µM
[28] = RPMI 5 mM glucose + 10% dialyzed FBS, 0.19 µM
[29] = RPMI 5 mM glucose + 10% dialyzed FBS, 0.569 µM
[30] = RPMI 5 mM glucose + 10% dialyzed FBS, 1.71 µM
[31] = RPMI 5 mM glucose + 10% dialyzed FBS, 5.12 µM
[32] = RPMI 5 mM glucose + 10% dialyzed FBS, 15.4 µM
[33] = RPMI 5 mM glucose + 10% dialyzed FBS, 46.1 µM

Row | SMILES | cell viability [1] | cell viability [2] | cell viability [3] | cell viability [4] | cell viability [5] | cell viability [6] | cell viability [7] | cell viability [8] | cell viability [9] | cell viability [10] | cell viability [11] | cell viability [12] | cell viability [13] | cell viability [14] | cell viability [15] | cell viability [16] | cell viability [17] | cell viability [18] | cell viability [19] | cell viability [20] | cell viability [21] | cell viability [22] | cell viability [23] | cell viability [24] | cell viability [25] | cell viability [26] | cell viability [27] | cell viability [28] | cell viability [29] | cell viability [30] | cell viability [31] | cell viability [32] | cell viability [33]
1 | COc1ccccc1OCC(O)COC(N)=O (configuration not stated) | 88.2% | 107% | 103% | 109% | 109% | 107% | 111% | 117% | 111% | 112% | 58.1% | 112% | 118% | 117% | 114% | 120% | 118% | 124% | 106% | 118% | 126% | 125% | 93.1% | 105% | 101% | 107% | 110% | 103% | 110% | 101% | 113% | 117% | 106%
2 | O=C(c1ccc(F)cc1)N1CCC[C@H](c2nc(-c3ccc(F)cc3)no2)C1 | 119% | 121% | 120% | 124% | 117% | 121% | 116% | 113% | 107% | 113% | 106% | 115% | 122% | 122% | 128% | 144% | 120% | 128% | 116% | 111% | 114% | 115% | 120% | 128% | 123% | 119% | 117% | 126% | 116% | 105% | 118% | 110% | 111%
3 | OC[C@H]1O[C@H]([C@H](O)[C@@H]1O)N2\C=C/C(=O)NC2=O | 108% | 103% | 99.1% | 111% | 101% | 104% | 109% | 103% | 99.4% | 110% | 99.6% | 104% | 109% | 103% | 103% | 97.6% | 104% | 117% | 95.3% | 107% | 96% | 90.8% | 101% | 89.1% | 95.9% | 101% | 102% | 98.3% | 109% | 97.1% | 96% | 89.5% | 92.4%
4 | CC(C)c1ccc2c(c1)c(SC(C)(C)C)c(CC(C)(C)C(=O)[O-])n2Cc1ccc(Cl)cc1 | 98.5% | 98.9% | 99.7% | 103% | 97% | 98.4% | 94.8% | 93.4% | 90.3% | 87.5% | 90.8% | 96.3% | 91.5% | 100% | 96.2% | 96% | 96.3% | 92.6% | 92.3% | 88.2% | 85.3% | 89.9% | 87% | 93.6% | 90.3% | 88.8% | 94.8% | 88.3% | 93.8% | 89.3% | 81.7% | 82.2% | 84.5%
